{
  "source": "patent US20240043473A1",
  "about": "“NOOTROPIC PEPTIDES FOR TREATING LYSOSOMAL STORAGE DISEASES” (Phoenix Nest Inc., priority 2021, published 2024)",
  "key": {"[1]": {"tested_on": "primary hippocampal neurons of Hgsnat^P304L mice", "assay": "Synaptic protein markers and BDNF in primary hippocampal neuronal cultures (immunocytochemistry)", "format": "cell-based, mouse", "conditions": "10 μM in culture media", "protocol": "Model and Developmental time points: Primary hippocampal neuronal cultures established from E16 embryos of […] mice.\nMethod: The hippocampal neurons were cultured until DIV (Day In Vitro) 21 and 50% of media was changed every 3 days. AVP6 at a final concentration of 10 μM was added to the media when plating and during every media change. At DIV21 neurons were fixed and analysed by immunohistochemistry using markers of dendrites (MAP), axons (neurofilament protein, NF-H), and synaptic transmission (PSD95 and BDNF). Synaptic spine architecture and additional protein synaptic markers (Vglut/PSD95 and VAMP) will be studied.\nPrimary hippocampal neurons were cultured from the brains of embryo at gestational day 16 (E16). The hippocampi were isolated and treated with 2.5% trypsin solution (Sigma-Aldrich, T4674) for 15 min at 37° C. The cells were washed 3 times with Hank's Balanced Salt Solution (HBSS, Gibco, 14025-092) and mechanically dissociated by pipetting, using glass Pasteur pipettes with 3 different opening sizes (3, 2 and 1 mm). Then, they were counted with the viability dye trypan blue (ThermoFisher Scientific, 15250061), using a hemocytometer, and resuspended in Neurohasal media (Gibco, 21103-049) containing L-glutamine, B27, N2, penicillin and streptomycin. […]\nCultured mouse neurons at day in vitro (DIV) 21 or iPSC-derived neurons at D1V21 and DIV28 were fixed in 4% paraformaldehyde and 4% sucrose solution in PBS, pH 7.4, for 20 min. […] Coverslips were washed 3 times again in PBS and mounted on slides using ProLong Gold mounting medium, containing 4′,6-dianiidino-2-phenylindole (DAPI; Invitrogen, Cat #P36935), and analyzed by a Leica SP8-DSL or Leica TCS SPE confocal microscopes (×63 glycerol immersion objectives, N.A. 1.4). Images were processed with Leica Application Suite X (LAS-X) software or Photoshop 2021 (Adobe) and quantified using Fiji-ImageJ 1.50i software (National Institutes of Health, Bethesda, MD, USA). […] Soma or axon areas were defined by TUBB3, NEUN, or NF-M staining and, within this area, the appropriate markers were measured establishing a threshold. […]"}, "[2]": {"tested_on": "Hgsnat^P304L MPS IIIC mice", "assay": "Open Field test", "format": "in vivo, mouse", "conditions": "for Open Field behaviour in WT mice vs saline: chronic daily treatment", "protocol": "Method: Open field test that explores behaviour of animals in open area. Rodents normally avoid the center of the arena (anxiety reflex) and spend certain time immobile (freezing reflex). […]\nThe open-field test was performed as previously described. Briefly, mice were habituated in the experimental room for 45 mins before the commencement of the test. Each mouse was then gently placed in the center of the open-field arena and allowed to explore for 20 min. The mouse was removed and transferred to its home cage after the test, and the arena was cleaned with 70% ethanol before the commencement of the next test. Analysis of the behavioral activity was done using the Smart video tracking software (v3.0, Panlab Harvard Apparatus), and total distance traveled and percent of time spent in the center zone were measured for hyperactivity and anxiety assessment, respectively.\nStarting from 3 weeks of age, WT C57B16 and homozygous Hgsnat^P304L male and female mice were randomly divided in treatment and control groups (6-13 mice/sex/genotype/treatment; see Table I). The control group was daily administered with saline (5 μL to each nostril), while for the treatment group, saline was supplemented with 125 µg of AVP6/mL, which would result in a dose of approximately 50 μg/kg BW/day. The peptide formulation was prepared once, aliquoted and kept frozen at −80° C. until use. At 4 months, all mice were studied by EPM, OF, YM and NOR behavioral tests. Administration of the drug or saline was continued through the days on which the assays were conducted. Then approximately at 5 months 4-5 mice in each group were sacrificed. Their blood plasma was collected, and their tissues were either snap-frozen or fixed and cryopreserved to analyze CNS pathology as described above. For the remaining mice, treatment was continued and their behaviour was studied again at the age of 6 months using OF. NOR and YM tests. Starting from the age of 8 months, Hgsnat^P304L treated and untreated mice were daily studied for the signs of urinary retention. When such signs were detected, the mice were studied by ERG and sacrificed within 1-2 days. Finally, the remaining treated and untreated WT mice were studied by ERG and sacrificed at the end of the study, approximately at 10 months of age.\nWe further tested if AVP6 can rescue neurobehavioral deficits associated with synaptic dysfunction in MPS IIIC mice. The early phase of the disease in both Hgsnat-Geo and Hgsnat^P304L mice manifests with reduced anxiety and hyperactivity. Specifically, in an Open Field (OF) test at both 4 months and 6 months, Hgsnat^P304L mice show a significant increase in a total distance traveled, increased time spent at the center of the arena and increased distance traveled in the center of the arena as compared with the WT animals. […] […] Control groups were treated with the same volume of saline."}, "[3]": {"assay": "Preliminary studies of activity and stability of the acetylated peptide"}, "[4]": {"conditions": "DIV21, Hgsnat^P311L (P304L) neurons"}, "[5]": {"conditions": "chronic daily intranasal 50 μg/kg BW from 3 weeks, Hgsnat^P304L male and female mice at 4 months"}, "[6]": {"conditions": "chronic daily intranasal 50 μg/kg BW from 3 weeks, Hgsnat^P304L mice at 6 months"}, "[7]": {"conditions": "single intranasal 50 μg/kg 17 h before test, Hgsnat^P311L (P304L) mice, 4 and 6 months"}},
  "note": "Entries after “also recorded” stand apart in the source; their conditions may differ. No end group written: not given here.",
  "data": [
    {"substance": "AVP6: N-terminally acetylated Semax, a nootropic peptide having the amino acid sequence of MEHFPGP (SEQ ID NO:1) (Ac-MEHFPGP)", "values": [
      {"measurement": "Synapsin 1-positive puncta", "setting": "[1]; [4]", "value": "increase in Synapsin 1-positive puncta; also recorded: rescues deficit of both proteins"},
      {"measurement": "number of BDNF-positive punctae", "setting": "[1]; [4]", "value": "increase in the number of BDNF-positive punctae; also recorded: rescues deficit of both proteins"},
      {"measurement": "levels of VGLUT1+, PSD-95+, SYN1+ and BDNF+ puncta", "setting": "[1]; Hgsnat^P304L neurons", "value": "rescues reduced levels of synaptic markers; also recorded: significantly increased"},
      {"measurement": "hyperactivity (total distance traveled), Open Field", "setting": "[2]; [5]", "value": "showed absence of these phenotypes; also recorded: show the rescue of all above deficits"},
      {"measurement": "reduced anxiety (time spent in the center), Open Field", "setting": "[2]; [5]", "value": "showed absence of these phenotypes; also recorded: show the rescue of all above deficits"},
      {"measurement": "hyperactivity (total distance traveled), Open Field", "setting": "[2]; [6]", "value": "significantly reduced; also recorded: show rescue of all above deficits"},
      {"measurement": "reduced anxiety (time spent in the center), Open Field", "setting": "[2]; [6]", "value": "significantly reduced; also recorded: show rescue of all above deficits"},
      {"measurement": "Open Field behaviour in WT mice vs saline", "setting": "[2]; WT mice at 4 months", "value": "no difference was observed"},
      {"measurement": "Open Field behaviour in WT mice vs saline", "setting": "[2]; WT mice at 6 months", "value": "No difference in behaviour was observed"},
      {"measurement": "hyperactivity (total distance traveled), Open Field", "setting": "[2]; [7]", "value": "rescues hyperactivity; also recorded: the total traveled distance was reduced; also recorded: Both parameters are normalized"},
      {"measurement": "reduced anxiety (time spent / distance traveled in the center), Open Field", "setting": "[2]; [7]", "value": "rescues hyperactivity and reduced anxiety; also recorded: time spend in the center increased; also recorded: Both parameters are normalized"},
      {"measurement": "effect of N-terminal acetylation on activity and stability of the peptide", "setting": "[3]", "value": "increase the activity and stability of the peptide"}
    ]}
  ]
}
